{"source": "patent EP4088714A1", "about": "“OPHTHALMIC PHARMACEUTICAL COMPOSITION COMPRISING ATROPINE” (Warszawskie Zaklady Farmaceutyczne Polfa S.A., priority 2021, dated 2022)", "origin": "cited, not measured here", "data": [{"smiles": "CN1[C@@H]2CC[C@H]1C[C@@H](OC(=O)C(CO)c1ccccc1)C2", "note": "(some centres unmarked) [atropine, Atropine]", "values": [{"measurement": "need for photochromatic glasses", "setting": "concentrations 0.01% to 0.05%, treated patients, two years of treatment", "result": "higher than 30%"}, {"measurement": "tolerability", "setting": "concentrations ranging from 0.01% to 0.05%, 383 children, after two years of treatment", "result": "well tolerated"}]}]}
